Experimental data published in PMC10817917, “Alkyl deoxyglycoside-polymyxin combinations against critical priority carbapenem-resistant gram-negative bacteria” (Scientific Reports, 2024).
Several values for one entry are separate records, joined by “and”; a condition that tells them apart may be missing. Identical values can stand only once. Like-named read-outs stand apart in the source and are kept apart here.

Columns and labels:
K. pneumoniae CQ4921 = experiment: Broth microdilution MIC/MBC, glycosides with or without polymyxins; format: cell-based, Klebsiella pneumoniae; settings: for MIC: Klebsiella pneumoniae, CQ4921
HEK-293T cells = experiment: Resazurin cell viability assay (cytotoxicity); format: cell-based, human; settings: 72 h, read-out: IC50
How it was run: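 HEK-293T and Caco-2 cells (1.5 × 10^4/well, RPMI 1640 with 10% FBS) exposed 72 h at 37 °C to glycosides at final 100 to 10 µM, alone or with PMB or colistin at final 0.5, 0.25 or 0.125 µg/mL; max DMSO 0.33%. Resazurin added 4 h, read 570/600 nm; IC50 from dose-response fits, mean ± SD of three replicates.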

E. coli NCTC 13846 = experiment: Broth microdilution MIC/MBC, glycosides with or without polymyxins; format: cell-based, Escherichia coli; settings: strain B
K. pneumoniae CQ1947 = experiment: Broth microdilution MIC, glycosides with or without polymyxins; format: cell-based, Klebsiella pneumoniae; settings: for MIC: Klebsiella pneumoniae, CQ1947
A. baumannii CQ4322 = experiment: Broth microdilution MIC/MBC, glycosides with or without polymyxins; format: cell-based, Acinetobacter baumannii; settings: for MIC: Acinetobacter baumannii, CQ4322
P. aeruginosa CQ4924 = experiment: Broth microdilution MIC, glycosides with or without polymyxins; format: cell-based, Pseudomonas aeruginosa; settings: for MIC: Pseudomonas aeruginosa, CQ4924
[1] = alone, read-out: MICA (MIC of each compound individually)
[2] = combination with the lowest FICI
[3] = compound + colistin, lowest FICI

SMILES: CCCCCCCCCCCC[C@H]1O[C@H](C)C[C@H](O)[C@H]1O [Compound 5, 1-(4,6-dideoxy-α-D-xylo-hexopyranosyl)dodecane]
- MIC of colistin in combination with the compound (K. pneumoniae CQ4921; Cpd conc. 0.4 μg/mL, strain C): 0.5 µg/mL
- MIC of colistin in combination with the compound (K. pneumoniae CQ4921; Cpd conc. 0.8 μg/mL, strain C): 0.5 µg/mL
- MIC of colistin in combination with the compound (K. pneumoniae CQ4921; Cpd conc. 3.125 μg/mL, strain C): 0.125 µg/mL
- MIC of colistin in combination with the compound (K. pneumoniae CQ4921; Cpd conc. 6.25 μg/mL, strain C): 0.125 µg/mL
- MIC of colistin in combination with the compound (K. pneumoniae CQ4921; Cpd conc. 12.5 μg/mL, strain C): 0.125 µg/mL
- MIC of colistin in combination with the compound (K. pneumoniae CQ4921; Cpd conc. […], strain C): 0.5 µg/mL
- MIC (K. pneumoniae CQ4921; agent alone, no adjuvant (polymyxin conc. 0), strain C, read-out: MIC): > 100 µg/mL
- MIC (K. pneumoniae CQ4921; [1]): > 100 µg/mL
- MIC of compound in combination with PMB (K. pneumoniae CQ4921; PMB 0.25 μg/mL, strain C): > 100 µg/mL
- MIC of compound in combination with PMB (K. pneumoniae CQ4921; PMB 0.5 μg/mL, strain C): 1.6 µg/mL
- MIC of compound in combination with colistin (K. pneumoniae CQ4921; colistin 0.06 μg/mL, strain C): > 100 µg/mL
- MBC of compound in combination with colistin (K. pneumoniae CQ4921; colistin 0.125 μg/mL, strain C): 6.3 µg/mL
- MIC of compound in combination with colistin (K. pneumoniae CQ4921; colistin 0.125 μg/mL, strain C): 3.1 µg/mL
- MIC of compound in combination with colistin (K. pneumoniae CQ4921; colistin 0.5 μg/mL, strain C): ≤ 0.1 µg/mL
- MICA(A + B) (MIC of compound in combination with colistin) (K. pneumoniae CQ4921; [2]): 3.125 µg/mL
- MICB(A + B) (MIC of colistin in combination with compound) (K. pneumoniae CQ4921; [2]): 0.125 µg/mL
- Interpretation (of FICI) (K. pneumoniae CQ4921; compound + colistin): Synergy (Values ≤ 0.5 were considered synergistic)
- FICI (K. pneumoniae CQ4921; [3]): 0.27
- IC50 (HEK-293T cells; Homo sapiens, HEK-293T, Colistin 0.125 μg/mL): 79.7 ± 1.05 µM
- IC50 (HEK-293T cells; Homo sapiens, HEK-293T, Colistin 0.25 μg/mL): 78.6 ± 3.28 µM
- IC50 (HEK-293T cells; Homo sapiens, HEK-293T, Colistin 0.5 μg/mL): 80 ± 1.69 µM
- IC50 (HEK-293T cells; Homo sapiens, HEK-293T, No polymyxin): 79.74 ± 0.53 µM
- IC50 (HEK-293T cells; Homo sapiens, HEK-293T, PMB 0.125 μg/mL): 79.2 ± 2 µM
- IC50 (HEK-293T cells; Homo sapiens, HEK-293T, PMB 0.25 μg/mL): 79.4 ± 1.58 µM
- IC50 (HEK-293T cells; Homo sapiens, HEK-293T, PMB 0.5 μg/mL): 83.2 ± 0.96 µM
- IC50 (HEK-293T cells; Homo sapiens, HEK-293T, tested alone (no polymyxin adjuvant)): 24 µg/mL
- IC50 (HEK-293T cells; No polymyxin): 79.7 µM
- MIC of colistin in combination with the compound (E. coli NCTC 13846; Cpd conc. 0.4 μg/mL): > 0.5 µg/mL
- MIC of colistin in combination with the compound (E. coli NCTC 13846; Cpd conc. 0.8 μg/mL): > 0.5 µg/mL
- MIC of colistin in combination with the compound (E. coli NCTC 13846; Cpd conc. 3.125 μg/mL): > 0.5 µg/mL
- MIC of colistin in combination with the compound (E. coli NCTC 13846; Cpd conc. 6.25 μg/mL): > 0.5 µg/mL
- MIC of colistin in combination with the compound (E. coli NCTC 13846; Cpd conc. 12.5 μg/mL): > 0.5 µg/mL
- MIC of colistin in combination with the compound (E. coli NCTC 13846; Cpd conc. […]): > 0.5 µg/mL
- MIC (E. coli NCTC 13846; Escherichia coli, NCTC13846, agent alone, no adjuvant (polymyxin conc. 0), read-out: MIC): > 100 µg/mL
- MIC of compound in combination with PMB (E. coli NCTC 13846; PMB 0.25 μg/mL): > 100 µg/mL
- MIC of compound in combination with PMB (E. coli NCTC 13846; PMB 0.5 μg/mL): > 100 µg/mL
- MIC of compound in combination with colistin (E. coli NCTC 13846; colistin 0.06 μg/mL): > 100 µg/mL
- MBC of compound in combination with colistin (E. coli NCTC 13846; colistin 0.125 μg/mL): > 100|> 100 μg/mL
- MIC of compound in combination with colistin (E. coli NCTC 13846; colistin 0.125 μg/mL): > 100|> 100 μg/mL
- MIC of compound in combination with colistin (E. coli NCTC 13846; colistin 0.25 μg/mL): > 100 µg/mL
- MIC of compound in combination with colistin (E. coli NCTC 13846; colistin 0.5 μg/mL): > 100 µg/mL
- MIC of colistin in combination with the compound (K. pneumoniae CQ1947; Cpd conc. 0.4 μg/mL, strain F): 0.5 µg/mL
- MIC of colistin in combination with the compound (K. pneumoniae CQ1947; Cpd conc. 0.8 μg/mL, strain F): 0.5 µg/mL
- MIC of colistin in combination with the compound (K. pneumoniae CQ1947; Cpd conc. 3.125 μg/mL, strain F): 0.25 µg/mL
- MIC of colistin in combination with the compound (K. pneumoniae CQ1947; Cpd conc. 6.25 μg/mL, strain F): 0.25 µg/mL
- MIC of colistin in combination with the compound (K. pneumoniae CQ1947; Cpd conc. 12.5 μg/mL, strain F): 0.25 µg/mL
- MIC of colistin in combination with the compound (K. pneumoniae CQ1947; Cpd conc. […], strain F): 0.5 µg/mL
- MIC (K. pneumoniae CQ1947; agent alone, no adjuvant (polymyxin conc. 0), strain F, read-out: MIC): > 100 µg/mL
- MIC (K. pneumoniae CQ1947; [1]): > 100 µg/mL
- MIC of compound in combination with PMB (K. pneumoniae CQ1947; PMB 0.25 μg/mL, strain F): > 100 µg/mL
- MIC of compound in combination with PMB (K. pneumoniae CQ1947; PMB 0.5 μg/mL, strain F): 3.1 µg/mL
- MIC of compound in combination with colistin (K. pneumoniae CQ1947; colistin 0.06 μg/mL, strain F): > 100 µg/mL
- MIC of compound in combination with colistin (K. pneumoniae CQ1947; colistin 0.125 μg/mL, strain F): > 100 µg/mL
- MIC of compound in combination with colistin (K. pneumoniae CQ1947; colistin 0.5 μg/mL, strain F): 0.2 µg/mL
- MICA(A + B) (MIC of compound in combination with colistin) (K. pneumoniae CQ1947; [2]): 3.125 µg/mL
- MICB(A + B) (MIC of colistin in combination with compound) (K. pneumoniae CQ1947; [2]): 0.25 µg/mL
- Interpretation (of FICI) (K. pneumoniae CQ1947; compound + colistin): Additive (from 0.5 to 1.0 were additive)
- FICI (K. pneumoniae CQ1947; [3]): 0.52
- MIC (A. baumannii CQ4322; agent alone, no adjuvant (polymyxin conc. 0), strain G, read-out: MIC): > 100 µg/mL
- MIC (A. baumannii CQ4322; [1]): > 100 µg/mL
- MIC of colistin in combination with the compound (A. baumannii CQ4322; Cpd conc. 0.4 μg/mL, strain G): > 0.5 µg/mL
- MIC of colistin in combination with the compound (A. baumannii CQ4322; Cpd conc. 0.8 μg/mL, strain G): 0.5 µg/mL
- MIC of colistin in combination with the compound (A. baumannii CQ4322; Cpd conc. 3.125 μg/mL, strain G): 0.25 µg/mL
- MIC of colistin in combination with the compound (A. baumannii CQ4322; Cpd conc. 6.25 μg/mL, strain G): 0.25 µg/mL
- MIC of colistin in combination with the compound (A. baumannii CQ4322; Cpd conc. 12.5 μg/mL, strain G): 0.25 µg/mL
- MIC of colistin in combination with the compound (A. baumannii CQ4322; Cpd conc. […], strain G): 0.5 µg/mL
- MIC of compound in combination with PMB (A. baumannii CQ4322; PMB 0.25 μg/mL, strain G): > 100 µg/mL
- MIC of compound in combination with PMB (A. baumannii CQ4322; PMB 0.5 μg/mL, strain G): 3.1 µg/mL
- MIC of compound in combination with colistin (A. baumannii CQ4322; colistin 0.06 μg/mL, strain G): > 100 µg/mL
- MBC of compound in combination with colistin (A. baumannii CQ4322; colistin 0.125 μg/mL, strain G): 25|25 μg/mL
- MIC of compound in combination with colistin (A. baumannii CQ4322; colistin 0.125 μg/mL, strain G): 25 μg/mL and 25|25 μg/mL
- MIC of compound in combination with colistin (A. baumannii CQ4322; colistin 0.25 μg/mL, strain G): 3.1 µg/mL
- MIC of compound in combination with colistin (A. baumannii CQ4322; colistin 0.5 μg/mL, strain G): 0.8 µg/mL
- MICA(A + B) (MIC of compound in combination with colistin) (A. baumannii CQ4322; [2]): 25 µg/mL
- MICB(A + B) (MIC of colistin in combination with compound) (A. baumannii CQ4322; [2]): 0.125 µg/mL
- FICI (A. baumannii CQ4322; [3]): 0.38
- MIC of colistin in combination with the compound (P. aeruginosa CQ4924; Cpd conc. 0.4 μg/mL, strain H): > 0.5 µg/mL
- MIC of colistin in combination with the compound (P. aeruginosa CQ4924; Cpd conc. 0.8 μg/mL, strain H): > 0.5 µg/mL
- MIC of colistin in combination with the compound (P. aeruginosa CQ4924; Cpd conc. 3.125 μg/mL, strain H): 0.5 µg/mL
- MIC of colistin in combination with the compound (P. aeruginosa CQ4924; Cpd conc. 6.25 μg/mL, strain H): 0.5 µg/mL
- MIC of colistin in combination with the compound (P. aeruginosa CQ4924; Cpd conc. 12.5 μg/mL, strain H): 0.5 µg/mL
- MIC of colistin in combination with the compound (P. aeruginosa CQ4924; Cpd conc. […], strain H): > 0.5 µg/mL
- MIC of compound in combination with PMB (P. aeruginosa CQ4924; PMB 0.25 μg/mL, strain H): > 100 µg/mL
- MIC of compound in combination with PMB (P. aeruginosa CQ4924; PMB 0.5 μg/mL, strain H): 6.3 µg/mL
- MIC (P. aeruginosa CQ4924; agent alone, no adjuvant (polymyxin conc. 0), strain H, read-out: MIC): > 100 µg/mL
- MIC (P. aeruginosa CQ4924; [1]): > 100 µg/mL
- MIC of compound in combination with colistin (P. aeruginosa CQ4924; colistin 0.06 μg/mL, strain H): > 100 µg/mL
- MIC of compound in combination with colistin (P. aeruginosa CQ4924; colistin 0.125 μg/mL, strain H): > 100 µg/mL
- MIC of compound in combination with colistin (P. aeruginosa CQ4924; colistin 0.25 μg/mL, strain H): > 100 µg/mL
- MIC of compound in combination with colistin (P. aeruginosa CQ4924; colistin 0.5 μg/mL, strain H): 3.1 µg/mL
- MICA(A + B) (MIC of compound in combination with colistin) (P. aeruginosa CQ4924; [2]): 3.125 µg/mL
- MICB(A + B) (MIC of colistin in combination with compound) (P. aeruginosa CQ4924; [2]): 0.5 µg/mL
- Interpretation (of FICI) (P. aeruginosa CQ4924; compound + colistin): Additive (from 0.5 to 1.0 were additive)
- FICI (P. aeruginosa CQ4924; [3]): 0.52
